Results: patent publication US20090274642A1, “Hair Care Compositions for Preventing Oxidative Damage to Hair, Methods of Use, and Methods of Marketing Such Compositions” (priority 2008, published 2009)

Tests used:
Malassezia = assay: Level of Malassezia after anti-dandruff actives delivered from shampoo; format: in vivo; conditions: 1% active in shampoo formulation, after two weeks of usage; FIG. 5
Text: From left to right, the bars on the graph represent: 1% SeS2, 1% ZPT, 1% Climbazole, None (Control), 1% Platelet ZPT, 1SeS2, and 1% Ketoconazole.

Malassezia cells = assay: Amplex ultra red (AMP dye) fluorescence, Malassezia cells on unsaturated lipophilic substrate; format: cell-based; conditions: pH 5.5; ethoxyquin added to the mixture; FIG. 2
[1] = Amplex assay, 10 μM H2O2 manually added to AMP dye; format: biochemical; conditions: 10 μM H2O2 added to AMP dye; pH=7.4; FIG. 3
Protocol: FIG. 3 is a graph showing the amplex fluorescence signal produced when 10 μM H2O2 is manually added to AMP dye.

CC(=O)N1CCN(c2ccc(OCC3COC(Cn4ccnc4)(c4ccc(Cl)cc4Cl)O3)cc2)CC1 (stereo not shown) [Ketoconazole, ketoconazole]
level of Malassezia (Malassezia): decreased level

CCOc1ccc2c(c1)C(C)=CC(C)(C)N2 [ethoxyquin]
fluorescence signal due to the action of Malassezia on substrate (Malassezia cells): quenched | amplex fluorescence signal produced by H2O2 [1]: quenched

[O-]n1ccccc1=S.[O-]n1ccccc1=S.[Zn+2] [ZPT, zinc salt of 1-hydroxy-2-pyridinethione]
level of Malassezia (Malassezia): decreased level

[O-][n+]1ccccc1[S-].[O-][n+]1ccccc1[S-].[Zn+2] [Platelet ZPT]
level of Malassezia (Malassezia): decreased level

S=[Se]=S [SeS2, selenium sulfide]
level of Malassezia (Malassezia): decreased level

CC(C)(C)C(=O)C(Oc1ccc(Cl)cc1)n1ccnc1 (stereo not shown) [Climbazole, climbazole]
level of Malassezia (Malassezia): decreased level
